In patent publication US11548918B2, “Sodium channel protein Nav1.4-targeting polypeptide and use thereof” (priority 2021, dated 2023):
Where no end group is shown, it is not given here.

Test system: skin wrinkles
Test: Clinical trial of wrinkle reduction, wrinkle volume measured with PRIMOS CR
Type: in vivo, human
Conditions: lotion with 0.0003 wt % NaV-B, 0.1 g at corners of eyes, female volunteers
Protocol: The capacity of NaV-B in reducing skin wrinkles was evaluated by clinical trials, wherein a total of 30 female volunteers ranging from 35 to 55 years old were participating in the trials. In the trials, 0.1 g of lotion was evenly applied to the corners of the volunteers' eyes. The wrinkle volume of each volunteer was measured with a wrinkle analyzer PRIMOS CR at various moments: before application, 15 minutes after application, 1 hour after application, 2 hours after application, and 4 hours after application.
The lotion was prepared by adding NaV-B, glycerin, 1,3-butanediol, sodium hyaluronate, and methylparaben into deionized water according to the following proportions, and stirring until all the ingredients were dissolved.
Results: The reduced wrinkle volumes of each volunteer were obtained by subtracting the volume measured before application from the volumes measured 15 minutes after application, 1 hour after application, 2 hours after application, and 4 hours after application. The percentages of reduced wrinkle volume of each volunteer were obtained through dividing the reduced wrinkle volumes by the volume measured before application.

## Synthetic Nav1.4-targeting polypeptide, amino acid sequence GHCCGDEYRKWCGKRVCRNKARCC (disulfide (positions not given here); not fully specified (bridges)) [NaV-B]
15 minutes after application
  percentage of reduced wrinkle volume (average of all volunteers): more than 9%
4 hours after application
  percentage of reduced wrinkle volume (average of all volunteers): more than 15%
